Measured values taken from ChEMBL document CHEMBL5390269, “Synthesis, anti-inflammatory activity, and conformational relationship studies of chromone derivatives incorporating amide groups” (Bioorg Med Chem Lett, 2023).

target: T1, Interleukin-5 (Homo sapiens, UniProt P05113); experiment: Inhibition of IL-5 (unknown origin)
T1 sequence (P05113 whole entry): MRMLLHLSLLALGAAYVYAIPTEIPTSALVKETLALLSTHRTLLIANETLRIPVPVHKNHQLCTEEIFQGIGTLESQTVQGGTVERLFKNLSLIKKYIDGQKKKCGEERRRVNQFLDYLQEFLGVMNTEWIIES

In the case of `O=c1c(CCC(O)c2ccc(O)cc2)coc2cccc(OCC3CCCCC3)c12` (stereo unspecified), the IC50 is reported as 4 µM.

system: RAW264.7; experiment: Anti-inflammatory activity in mouse RAW264.7 cells assessed as inhibition of LPS-stimulated NO production; assay type: functional, cell-based

First: O=C(Nc1ccc(C(F)(F)F)cc1)c1cc(=O)c2ccccc2o1
Second: O=C(Nc1ccc(C(F)(F)F)cc1)c1cc(=O)c2ccc(Br)cc2o1
The EC50 of the first is higher: > 1000 µM for the first, 167 µM for the second. The second is the more potent here.

First: COc1cccc2oc(C(=O)Nc3ccc(F)c(F)c3)cc(=O)c12
Second: COc1cccc2oc(C(=O)Nc3ccc(Cl)c(F)c3)cc(=O)c12
The EC50 of the first is 2.5-fold higher: 208 µM for the first, 83.7 µM for the second. The second is the more potent here.

Compared with `Cc1ccc2oc(C(=O)Nc3ccc(C)c(Cl)c3)cc(=O)c2c1`, `Cc1ccc2oc(C(=O)Nc3ccc(Cl)c(Cl)c3)cc(=O)c2c1` is 2-fold lower in EC50: 80 µM for the first, 40.3 µM for the second. The second is the more potent here.

`COc1cc(OC)c2c(=O)cc(C(=O)Nc3ccc(C(F)(F)F)cc3)oc2c1` and `COc1ccc(NC(=O)c2cc(=O)c3c(OC)cc(OC)cc3o2)cc1` are within 1.5-fold of each other in EC50: 31.7 µM for the first, 21.3 µM for the second.

First: COc1cc(OC)c2c(=O)cc(C(=O)Nc3cc(Cl)ccc3C)oc2c1
Second: COc1cc(OC)c2c(=O)cc(C(=O)Nc3ccc(C)c(Cl)c3)oc2c1
The EC50 of the first is 6.1-fold lower: 18.7 µM for the first, 115 µM for the second. The first is the more potent here.

Compared with `COc1cccc2oc(C(=O)Nc3ccc(Cl)c(C(F)(F)F)c3)cc(=O)c12`, `COc1ccc2c(=O)cc(C(=O)Nc3ccc(Cl)c(C(F)(F)F)c3)oc2c1` is 5.2-fold lower in EC50: 448 µM for the first, 86.5 µM for the second.

`Cc1ccc2oc(C(=O)Nc3ccc(Cl)c(C(F)(F)F)c3)cc(=O)c2c1` and `Cc1ccc2oc(C(=O)Nc3ccc(F)c(F)c3)cc(=O)c2c1` are within 1.5-fold of each other in EC50: 40.7 µM for the first, 41 µM for the second.

First: O=C(Nc1ccc(F)c(F)c1)c1cc(=O)c2ccc(Br)cc2o1
Second: Cc1ccc(NC(=O)c2cc(=O)c3ccc(Br)cc3o2)cc1Cl
The EC50 of the first is 3.6-fold higher: 138 µM for the first, 37.9 µM for the second.

Compared with `COc1ccc2c(=O)cc(C(=O)Nc3ccc(Br)cc3)oc2c1`, `COc1ccc(NC(=O)c2cc(=O)c3ccc(Br)cc3o2)cc1` is 1.9-fold higher in EC50: 89.5 µM for the first, 174 µM for the second.

Compared with `COc1ccc2c(=O)cc(C(=O)Nc3ccc(Cl)c(F)c3)oc2c1`, `COc1ccc2c(=O)cc(C(=O)Nc3ccc(Cl)c(Cl)c3)oc2c1` is 7.4-fold higher in EC50: 11.1 µM for the first, 82 µM for the second.

`Cc1ccc(NC(=O)c2cc(=O)c3ccccc3o2)cc1Cl` and `Cc1ccc(NC(=O)c2cc(=O)c3ccccc3o2)cc1C` are within 1.5-fold of each other in EC50: 30.1 µM for the first, 31.7 µM for the second.

Going from `Cc1ccc(NC(=O)c2cc(=O)c3ccc(Br)cc3o2)cc1C` to `O=C(Nc1ccc(Br)cc1)c1cc(=O)c2ccc(Br)cc2o1`, the EC50 falls from 821 µM to 50 µM (16-fold). The second is the more potent here.

Compared with `COc1ccc2c(=O)cc(C(=O)Nc3ccccc3C)oc2c1`, `COc1ccc2c(=O)cc(C(=O)Nc3ccc(C)c(Cl)c3)oc2c1` is 8.5-fold higher in EC50: 5.33 µM for the first, 45.2 µM for the second.

Compared with `COc1cccc2oc(C(=O)Nc3ccc(Br)cc3)cc(=O)c12`, `COc1ccc(NC(=O)c2cc(=O)c3c(OC)cccc3o2)cc1` is 2-fold lower in EC50: 378 µM for the first, 191 µM for the second. The second is the more potent here.

`Cc1ccc(Cl)cc1NC(=O)c1cc(=O)c2ccccc2o1` and `Cc1ccc2oc(C(=O)Nc3cc(Cl)ccc3C)cc(=O)c2c1` are within 1.5-fold of each other in EC50: 45.3 µM for the first, 40.5 µM for the second.

`O=C(Nc1ccc(Br)cc1)c1cc(=O)c2ccccc2o1` and `COc1ccc(NC(=O)c2cc(=O)c3ccccc3o2)cc1` are within 1.5-fold of each other in EC50: 41 µM for the first, 42.1 µM for the second.

First: O=C(Nc1ccc(F)c(F)c1)c1cc(=O)c2ccccc2o1
Second: CCOc1ccc(NC(=O)c2cc(=O)c3ccccc3o2)cc1
The EC50 of the first is lower: 91.8 µM for the first, > 1000 µM for the second. The first is the more potent here.

Compared with `CC(C)Cc1ccc(C(C)C(=O)O)cc1` (stereo unspecified) [IBUPROFEN], `COc1cccc2oc(C(=O)Nc3ccc(C(F)(F)F)cc3)cc(=O)c12` is 6.6-fold higher in EC50: 26.7 µM for the first, 175 µM for the second.

`COc1cc(OC)c2c(=O)cc(C(=O)Nc3ccc(Cl)c(Cl)c3)oc2c1` showed an EC50 of 32.3 µM.

system: not listed separately; experiment: Cytotoxicity against mouse RAW264.7 cells assessed as cell growth inhibition by CCK-8 colorimetric assay; assay type: toxicity, cell-based

Compared with `COc1ccc2c(=O)cc(C(=O)Nc3ccccc3C)oc2c1`, `COc1cccc2oc(C(=O)Nc3cc(Cl)ccc3C)cc(=O)c12` is 17-fold lower in IC50: 813 µM for the first, 48 µM for the second.

`COc1cc(OC)c2c(=O)cc(C(=O)Nc3ccc(C)c(Cl)c3)oc2c1` and `Cc1ccc2oc(C(=O)Nc3cc(Cl)ccc3C)cc(=O)c2c1` are within 1.5-fold of each other in IC50: 48 µM for the first, 38.4 µM for the second.

First: O=C(Nc1ccc(Br)cc1)c1cc(=O)c2ccccc2o1
Second: O=C(Nc1ccc(C(F)(F)F)cc1)c1cc(=O)c2ccc(Br)cc2o1
The IC50 of the first is 13-fold lower: 24.3 µM for the first, 324 µM for the second.

In the case of `CC(C)Cc1ccc(C(C)C(=O)O)cc1` (stereo unspecified) [IBUPROFEN], the IC50 is reported as > 1000 µM.

target: T2, Prostaglandin G/H synthase 2 (Homo sapiens, UniProt P35354); experiment: Inhibition of COX-2 (unknown origin)
T2 sequence (P35354 whole entry): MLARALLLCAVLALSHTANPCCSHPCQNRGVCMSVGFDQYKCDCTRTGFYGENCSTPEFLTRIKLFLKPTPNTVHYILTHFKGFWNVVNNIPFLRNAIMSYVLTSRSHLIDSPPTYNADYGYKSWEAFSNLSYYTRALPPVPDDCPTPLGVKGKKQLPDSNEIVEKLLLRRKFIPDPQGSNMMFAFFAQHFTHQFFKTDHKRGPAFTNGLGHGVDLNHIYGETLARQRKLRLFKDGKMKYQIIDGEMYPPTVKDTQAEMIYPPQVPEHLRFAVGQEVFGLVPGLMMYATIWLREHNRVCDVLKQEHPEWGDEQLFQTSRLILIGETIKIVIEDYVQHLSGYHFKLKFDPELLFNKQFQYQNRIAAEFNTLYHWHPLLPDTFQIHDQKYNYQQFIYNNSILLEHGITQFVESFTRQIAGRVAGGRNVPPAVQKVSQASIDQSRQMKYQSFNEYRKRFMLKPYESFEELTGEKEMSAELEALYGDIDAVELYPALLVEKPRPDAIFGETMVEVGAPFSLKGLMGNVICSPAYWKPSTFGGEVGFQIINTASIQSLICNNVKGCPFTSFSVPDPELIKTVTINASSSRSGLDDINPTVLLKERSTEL

`O=C1Nc2ccccc2/C1=C/c1coc2ccccc2c1=O` showed an IC50 of 0.02 µM.
